The values below come from patent US20190002429A1, “Derivatives of Xanthone Compounds” (Agency for Science, Technology and Research, priority 2011, published 2019).

Data set [1] concerns Clinical Staphylococcus aureus DM4299. Briefly: MIC against clinical S. aureus DM4299. In kind it is cell-based.
The test system of data set [2] is Clinical Staphylococcus aureus DM4001. As to the kind of experiment: Cytoplasmic membrane depolarization (DiSC3 dye). The format is cell-based. The settings on record: DiSC3 fluorescence; AM-016 at 12.5 ug/mL. On the procedure:
Membrane potential-sensitive dye 3,3′-dipropylthiadicarbocyanine iodide (DiSC3) was used to determine the cytoplasmic membrane depolarization activity of AM-016. An overnight culture of clinical Staphylococcus aureus DM4001(source: Eye) was allowed to grow in Muller-Hinton broth (MHB) to OD620=0.3-0.4. Then, the bacteria was collected by centrifugation at 2800 r.p.m at 37° C. for 30 minutes and washed with 5 mM HEPES buffer at pH7. […] The cell suspension was then incubated with 0.1M KCl and 0.4 μM DiSC3 at 37° C. for 30 minutes. Dye uptake was monitored by fluorospectrometry (Photon Technology International (PTI) Photomultiplier Detection Systems, model 814) in a stirred cuvette until the fluorescence signal was stable. The desired concentration of AM-016 was added and the fluorescence was monitored at an excitation wavelength of 622 nm and at an emission wavelength of 670 nm. A blank with dye in the absence of bacteria with same concentration of AM-016 was used as a control.

Another data set deals with MRSA DM09808R. Briefly: MIC against MRSA DM09808R. In kind it is cell-based, Staphylococcus aureus.
Data set [3] deals with Straphylococcus aureus ATCC 29737. Briefly: MIC against S. aureus ATCC 29737. In kind it is cell-based, Staphylococcus aureus.
The next data set has as its system MRSA. As to the kind of experiment: MIC99 against MRSA (Table 2-1). The format is cell-based, Staphylococcus aureus.
The next data set has as its system MRSA strain DM21455. As to the kind of experiment: Kill curve (time killing) of MRSA. In kind it is cell-based, Staphylococcus aureus. The note with it: FIG. 1.
A further data set concerns MRSA DR68004. Briefly: MIC against MRSA DR68004. In kind it is cell-based, Staphylococcus aureus. The settings on record: MRSA DR68004, Source: Blood.
The subject of data set [4] is MRSA QC Strain ATCC BAA1026. Briefly: MIC against MRSA QC strain ATCC BAA1026. In kind it is cell-based, Staphylococcus aureus.
For data set [5], the system named is Enterococcus faecalis 11: DU9345 VRE. As to the kind of experiment: MIC against Enterococcus faecalis DU9345 VRE. In kind it is cell-based. The note with it: E. faecalis DU9345 VRE; no unit in table (Example 10 MICs in μg/ml).
The next data set deals with rabbit cornea. The note with it: in vivo. The source says: The particular model used was a 5 mm diameter corneal epithelial abrasion model. Wound healing was monitored by a slit lamp using flourescein disclosure dye so that the size of the wound could be measured. The compounds were applied topically three times per day.
A short description of data set [6]: Calcein leakage from DOPC:DOPS liposomes. The note with it: DOPC:DOPS = 3:1. The procedure:
To further investigate antimicrobial action of the active compounds via inner membrane targeting, a calcein leakage study was performed. In brief, liposomes which mimic bacterial membrane (DOPE: […] The lipids were dissolved in methanol/chloroform (1:2, by volume). The solvent was then dried gently using a constant stream of nitrogen gas. Then, the lipid film was placed under vacuum for at least two hours. […] The hydrated vesicles were freeze-thaw (frozen in liquid nitrogen and warmed in water bath) for at least 7 cycles. Extrusion method using mini-extruder (Avanti Polar Lipid Inc.) was used to produce homogeneous large unilamellar vesicles (LUVs). The extrusion was done for at least 10 cycles using a polycarbonate membrane (Whatman, pore size 100 nm) to obtain LUVs with diameter of 100 nm. To separate the calcein encapsulated vesicles from free calcein, gel filtration column Sephadex G-50 was used. The concentrations of eluted liposomes were determined using total phosphorus determination assay. Leakage of calcein from the liposome induced by AM-series compounds could be monitored using fluorescence spectroscopy (Photon Technology International Model 814) at an excitation wavelength of 490 nm and an emission wavelength of 520 nm. […] Those compounds with […] HC50 values have stronger leakage %. […] To further investigate the inner membrane targeting action of AM-series compounds, E. coli lipid extract was used to construct the liposome. […] Therefore, the outer layer of Gram-negative bacteria (LPS) may play important role to impede the AM-series compounds to reach inner membrane. Calcein leakage data strongly support the active compounds are inner membrane targeting.

A further data set concerns MRSA DM21455. As to the kind of experiment: Drug resistance test, 20 serial passages. In kind it is cell-based, Staphylococcus aureus. The note with it: MRSA DM21455, FIG. 7.
The test system of a further data set is MRSA DB57964/04. As to the kind of experiment: MIC against MRSA DB57964/04. The format is cell-based, Staphylococcus aureus.
The next data set has as its system Gram-negative bacteria. As to the kind of experiment: Antimicrobial activity against Gram-negative bacteria (statement). The format is cell-based.
In data set [7] the test system is Staphylococcus aureus ATCC29213. As to the kind of experiment: MIC against S. aureus ATCC29213. The format is cell-based.
In data set [8] the test system is Bacillus cereus ATCC11778. As to the kind of experiment: MIC against Bacillus cereus ATCC11778. The format is cell-based.

“And” between values parts separate entries of the source, which are not always exact repeats. Equal values may be shown once. “Also recorded” adds a separate entry of the source. Where only a bound is given, the exact number is not on record here.

One may read the MIC as the lowest concentration found to suppress growth. Low readings indicate greater potency, high ones weaker potency. As to “3,6-bis-[4-(diethylamino)butoxy)]-1-hydroxy-7-methoxy-2,8-bis(3-methylbut-2-enyl)-9H-xanthen-9-one [AM-016]”, the “Minimum inhibition concentration (MIC)” value in [1] is 1.56 μg/ml and 2.35 μM; with MRSA DM09808R (MRSA DM09808R, Source: Eye), 1.56 μg/ml and 2.35 μM; in data set [3] it was 1.56 μg/ml and 2.35 μM; in the data set on MRSA DR68004 it was 1.56 μg/ml and 2.35 μM; in [4] it was 3.125 μg/ml and 4.70 μM; in the data set on MRSA DB57964/04 it was 0.78 μg/ml and 1.17 μM. Moreover, the “Minimum inhibition concentration (MIC)” value is 0.39 μg/ml and 0.59 μM in data set [7]; 3.125 μg/ml and 4.70 μM in data set [8]. Also, in [2], the Cytoplasmic membrane depolarization entry is given as “causes membrane depolarization; also recorded: depolarizes”. The MIC in the data set on MRSA DM09808R (MRSA-09808R (Eye), Example 10, Mueller Hinton broth dilution) is 3.125 µg/mL. Further, the “MIC99 MRSA” value in the data set on MRSA worked out at 0.39 µg/mL. Further, in the data set with MRSA strain DM21455, the “Time to eliminate 99.9% of MRSA” value is at most 20 min. In data set [5], this substance gave a Minimum inhibitory concentration of 0.78. For the same substance, the “Cytotoxicity to the rabbit eye in corneal wound healing model” value in the data set with rabbit cornea is on record as “does not exhibit any cytotoxicity”. Also, the “Effect on wound healing (percentage wound closing)” value in the data set with rabbit cornea was “does not delay wound healing”. Also, the “% Leakage of calcein” value in data set [6] (compound:lipid ratio 1:2) is listed as 88.43%; in data set [6] (compound:lipid ratio 1:4) it was 72.76%; in data set [6] (compound:lipid ratio 1:8), 37.66%. Moreover, in the data set on MRSA DM21455, the “Development of drug resistance” value is listed as “has difficulty in developing drug resistance”. Further, the “Activity against Gram-negative bacteria” value in the data set on Gram-negative bacteria was “inactive”.
